Values of other authors in US20240182984A1, “METHODS FOR ASSESSING PROLIFERATION AND ANTI-FOLATE THERAPEUTIC RESPONSE” (priority 2021, published 2024).

Tested on: bronchioid subtype of LUAD
Details: compared with other LUAD subtypes

Q: With `Nc1nc2[nH]cc(CCc3ccc(C(=O)N[C@@H](CCC(=O)O)C(=O)O)cc3)c2c(=O)[nH]1` [pemetrexed] as the compound, how does the “sensitivity of the bronchioid subtype of LUAD (Group 1)” value read?
A: more sensitive
